A value given as a limit tells only on which side of the number the result lay.

Assay [1] concerns 647V cells. The experiment in a line: High throughput proliferation (HTP) assay. The assay is classed as cell-based. The conditions noted are these: Homo sapiens, 647-V, high throughput proliferation; read-out: CREBBP HTP IC50. The essentials: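 Proliferation IC50 (micromolar) derived from a 7-day CellTiter-Glo viable-cell readout in 647V cells exposed, in triplicate, to rising compound concentrations; cells grown in DMEM plus 15% heat-inactivated FBS at 37° C under 5% CO2.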

The target in assay [2] is T1, EP300 (P300(1048-1664)) (Homo sapiens, UniProt Q09472).
T1 construct: P300(1048-1664)
T1 sequence (Q09472 1048-1664): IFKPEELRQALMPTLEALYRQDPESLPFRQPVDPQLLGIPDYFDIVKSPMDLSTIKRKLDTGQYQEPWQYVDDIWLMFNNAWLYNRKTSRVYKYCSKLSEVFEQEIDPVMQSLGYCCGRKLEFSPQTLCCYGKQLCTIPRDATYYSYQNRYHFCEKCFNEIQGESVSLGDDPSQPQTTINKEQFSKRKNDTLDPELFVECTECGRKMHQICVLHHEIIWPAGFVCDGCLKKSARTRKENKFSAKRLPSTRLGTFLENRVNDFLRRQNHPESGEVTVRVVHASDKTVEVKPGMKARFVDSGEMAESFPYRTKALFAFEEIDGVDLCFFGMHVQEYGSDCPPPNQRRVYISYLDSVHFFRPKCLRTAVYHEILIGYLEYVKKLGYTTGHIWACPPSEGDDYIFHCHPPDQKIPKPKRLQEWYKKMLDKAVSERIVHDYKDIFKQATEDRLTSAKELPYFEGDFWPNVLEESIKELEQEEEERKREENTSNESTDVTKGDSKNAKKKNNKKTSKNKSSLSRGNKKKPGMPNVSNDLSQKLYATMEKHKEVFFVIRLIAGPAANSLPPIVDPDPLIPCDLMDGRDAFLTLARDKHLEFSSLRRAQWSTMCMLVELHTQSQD
The experiment in a line: Biochemical assay for EP300, SAMDI. Conditions: EP300, SAMDI; read-out: EP300 Biochemistry IC50. An excerpt:
The following example describes materials and methods relating to a biochemical assay for EP300. IC50 values (micromolar (μM)) are summarized in Table 1, Table 2, and Table 3 under the column labeled: “EP300 Biochemistry IC50 (micromolar).”

Assay [3] has as its system H3K18Ac in HB-CLS-2 cells. The experiment in a line: H3K18AC in-cell western (ICW) assay. The conditions noted are these: H3K18Ac in-cell western; read-out: CREBBP ICW IC50. Format: cell-based. The method in brief:
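In-cell western: after methanol fixation, blocking, overnight 4° C anti-H3K18Ac staining, then 800CW secondary plus DRAQ5 for DNA content, integrated intensities were scanned at 800 and 700 nm. Before this, compound exposure lasted 2 hr at 37° C in HB-CLS-2 cells plated 16–24 hours earlier. Values expressed as IC50 (μM).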

The target in assay [4] is T2, CREBBP (1084-1701) (Homo sapiens, UniProt Q92793).
T2 construct: measured in the following biochemical assay using CREBBP (1084-1701); purchased
T2 sequence (Q92793 1084-1701): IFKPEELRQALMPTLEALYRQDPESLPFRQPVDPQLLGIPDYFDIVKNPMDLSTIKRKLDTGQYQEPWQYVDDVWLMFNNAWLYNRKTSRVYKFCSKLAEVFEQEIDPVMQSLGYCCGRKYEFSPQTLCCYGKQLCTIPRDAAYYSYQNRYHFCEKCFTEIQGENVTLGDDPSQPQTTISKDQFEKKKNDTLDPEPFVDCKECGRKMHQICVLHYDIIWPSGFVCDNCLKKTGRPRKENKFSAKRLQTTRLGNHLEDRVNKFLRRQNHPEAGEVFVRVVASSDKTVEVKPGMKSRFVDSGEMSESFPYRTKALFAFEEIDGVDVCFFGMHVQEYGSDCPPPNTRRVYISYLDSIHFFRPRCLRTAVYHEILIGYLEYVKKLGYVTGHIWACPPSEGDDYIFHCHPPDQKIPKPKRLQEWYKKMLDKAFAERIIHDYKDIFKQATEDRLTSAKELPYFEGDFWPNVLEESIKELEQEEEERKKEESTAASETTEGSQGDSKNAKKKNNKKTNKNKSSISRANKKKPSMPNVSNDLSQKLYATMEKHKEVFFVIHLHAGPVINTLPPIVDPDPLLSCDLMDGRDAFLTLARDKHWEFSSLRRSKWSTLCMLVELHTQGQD
The experiment in a line: Biochemical assay for CREBBP (1084-1701), SAMDI. The conditions noted are these: SAMDI, read-out: CREBBP Biochemistry IC50. The method in brief:
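Acetyltransferase activity measured by SAMDI mass spectrometry after capture on biochip. Enzyme sat with compound 30 min at RT before acetyl-CoA and biotinylated H3 11-25 (K14R, K23R) peptide were added for 30 min at RT. Formic acid quench, bicarbonate neutralisation; IC50 values reported.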

Broadly, the IC50 is the point on the concentration scale where inhibition reaches its midpoint. With `CCc1ncc(CN(C)C(=O)c2cc(-c3ccc(NCCNC)c(C)n3)nc3ccc(Cl)cc23)o1` [Compound 560], the IC50 in assay [1] amounted to 0.448 µM; in assay [2], 0.412 µM; in assay [3], 0.242 µM; in assay [4], 0.142 µM.
The like results for `CCc1ncc(CN(C)C(=O)c2cc(-c3ccc(NC4CN(C)C4)c(C)n3)nc3ccc(Cl)cc23)n1C` [Compound 561] were, in that order, 0.0228 µM, 0.0065 µM, 0.0582 µM and 0.0191 µM.
In the case of `CCn1ncc(CN(C)C(=O)c2nc(-c3cc4c(NC)n[nH]c4cc3C)nc3ccc(Br)cc23)c1C` [Compound 562], the IC50 in assay [1] came out at 0.0879 µM; in assay [2], 0.0149 µM; in assay [3], 0.154 µM; in assay [4] it was 0.0494 µM.
For `CCc1ncc(CN(C)C(=O)c2nc(-c3cc4c(NC)n[nH]c4cc3C)nc3ccc(Cl)cc23)n1C` [Compound 563] the same measures were 0.0375 µM, 0.0057 µM, 0.0554 µM and 0.0135 µM.
For the compound `CNCCNc1ccc(-c2cc(C(=O)N(C)Cc3cn[nH]c3C)c3cc(Cl)ccc3n2)nc1C` [Compound 564], the IC50 in assay [1] was 9.53 µM; in assay [2], no less than 50 µM; in assay [3], 20 µM; in assay [4] it was no less than 50 µM.
As to `CCc1ncc(CN(C)C(=O)c2cc(-c3ccc(NCCNC)c(F)n3)nc3ccc(Cl)cc23)n1C` [Compound 565], the IC50 in assay [1] is 0.193 µM; in assay [2] it was 0.0338 µM; in assay [3], 0.153 µM; in assay [4], 0.0511 µM.
For `CCc1ncc(CN(C)C(=O)c2nc(-c3cc(C)cc(NC4CNC4)c3)nc3ccc(Cl)cc23)n1C` [Compound 566] the same measures were 0.338 µM, 0.0113 µM, 0.816 µM and 0.0375 µM.
For `CCc1ncc(CN(C)C(=O)c2cc(-c3cc(NCCNC)cc(OC)n3)nc3ccc(Cl)cc23)n1C` [Compound 567] the same measures were 0.032 µM, 0.0222 µM, 0.0779 µM and 0.0797 µM.
The like results for `CCn1ncc(CN(C)C(=O)c2cc(-c3ccc(NCCOC)c(C)n3)nc3ccc(Cl)cc23)c1C` [Compound 568] were, in that order, 0.26 µM, 0.0311 µM, 0.127 µM and 0.0236 µM.
Consider `CCn1ncc(CN(C)C(=O)c2cc(-c3cc(NCCN(C)C)cc(C)n3)nc3ccc(Cl)cc23)c1C` [Compound 570], for which the IC50 in assay [1] was 0.0301 µM; in assay [2] it was 0.0137 µM; in assay [3], 0.0763 µM; in assay [4], 0.045 µM.
The like results for `CCc1ncc(CN(C)C(=O)c2cc(-c3ccc(NCC(O)CNC)c(C)n3)nc3ccc(Cl)cc23)n1C` (centres unmarked) [Compound 571] were, in that order, 0.118 µM, 0.0111 µM, 0.428 µM and 0.0254 µM.
For `CCc1ncc(CN(C)C(=O)c2cc(-c3ccc(N(C)C4CN(C)C4)c(C)n3)nc3ccc(Cl)cc23)n1C` [Compound 572] the same measures were 0.133 µM, 0.0233 µM, 0.197 µM and 0.116 µM.
The like results for `CCc1nc(-c2cc(C(=O)N(C)Cc3cnn(CC)c3C)c3cc(Cl)ccc3n2)ccc1NCCN(C)C` [Compound 573] were, in that order, 0.0493 µM, 0.0454 µM, 0.0527 µM and 0.0465 µM.
In the case of `CCc1ncc(CN(C)C(=O)c2nc(-c3cc(C)nc(NCCNC)c3)nc3ccc(Cl)cc23)n1C` [Compound 574], the IC50 is 0.0613 µM in assay [1], 0.0169 µM in assay [2], 0.149 µM in assay [3] and 0.0479 µM in assay [4].
The like results for `CCc1noc(CN(C)C(=O)c2cc(-c3ccc(NCCNC)c(C)n3)nc3ccc(Cl)cc23)n1` [Compound 575] were, in that order, 1.53 µM, 3.87 µM, 1.52 µM and 3.38 µM.
For `CCc1nc(-c2cc(C(=O)N(C)Cc3cnc(CC)n3C)c3cc(COC)ccc3n2)ccc1NCCN(C)C` [Compound 580] the same measures were 0.13 µM, 0.0439 µM, 0.176 µM and 0.0659 µM.
Turning to `CCn1ncc(CN(C)C(=O)c2nc(-c3cnc4c[nH]nc4c3)nc3ccc(Cl)cc23)c1C` [Compound 581], the IC50 in assay [1] amounted to 0.839 µM; in assay [2], 1.43 µM; in assay [3], 0.513 µM; in assay [4] it was 3.31 µM.
The like results for `CCn1ncc(CN(C)C(=O)c2cc(-c3cc(C4=NCCN4)n(C)n3)nc3ccc(Cl)cc23)c1C` [Compound 582] were, in that order, 0.122 µM, 0.0093 µM, 0.0655 µM and 0.0258 µM.
Turning to `CCc1ncc(CN(C)C(=O)c2nc(-c3cc(C)nc(NCCN(C)C)c3)nc3ccc(Cl)cc23)n1C` [Compound 583], the IC50 in assay [1] worked out at 0.0108 µM; in assay [2], 0.0142 µM; in assay [3], 0.0297 µM; in assay [4] it was 0.034 µM.
On to `CCn1ncc(CN(C)C(=O)c2cc(-c3ccc(NCCNC)c(OC)c3)nc3ccc(Cl)cc23)c1C` [Compound 584], for which the IC50 in assay [1] amounted to 0.165 µM; in assay [2] it was 0.221 µM; in assay [3] it was 0.273 µM; in assay [4] it was 0.0445 µM.
As to `CCn1ncc(CN(C)C(=O)c2cc(-c3ccc(NCCN(C)C)c(OC)c3)nc3ccc(Cl)cc23)c1C` [Compound 585], the concentration for half-maximal inhibition (IC50) in assay [1] was 0.177 µM; in assay [2] it was 0.903 µM; in assay [3], 0.332 µM; in assay [4] it was 0.104 µM.
As to `CCc1nn(C)c(CN(C)C(=O)c2cc(-c3ccc(NCCNC)c(C)n3)nc3ccc(Cl)cc23)c1C` [Compound 586], the half-maximal inhibitory concentration (IC50) turned out to be 2.13 µM in assay [1], 23.3 µM in assay [2], 7.24 µM in assay [3] and 19.4 µM in assay [4].
The like results for `CCc1nn(C)c(CN(C)C(=O)c2cc(-c3ccc(NCCN(C)C)c(C)n3)nc3ccc(Cl)cc23)c1C` [Compound 587] were, in that order, 1.61 µM, 17.3 µM, 8.03 µM and 14.2 µM.
Turning to `CCc1ncc(CN(C)C(=O)c2cc(-c3ccc(NCC(O)CN(C)C)c(C)n3)nc3ccc(Cl)cc23)n1C` (centres unmarked) [Compound 588], the IC50 in assay [1] turned out to be 0.0279 µM; in assay [2], 0.0089 µM; in assay [3], 0.0733 µM; in assay [4], 0.0286 µM.
For `CCc1cc(CN(C)C(=O)c2cc(-c3ccc(NCCN(C)C)c(C)n3)nc3ccc(Cl)cc23)on1` [Compound 590] the same measures were 0.39 µM, 0.734 µM, 0.403 µM and 0.336 µM.
The like results for `CCn1ncc(CN(C)C(=O)c2cc(-c3ccc(NCC(CN(C)C)OC)c(C)n3)nc3ccc(Cl)cc23)c1C` (centres unmarked) [Compound 592] were, in that order, 7.23 µM, 0.0109 µM, 4.5 µM and 0.0355 µM.
Take `CCc1nc(-c2cc(C(=O)N(C)Cc3onc(CC)c3C)c3cc(COC)ccc3n2)ccc1NCCN(C)C` [Compound 593]: the IC50 in assay [1] amounted to 0.103 µM; in assay [2], 0.175 µM; in assay [3], 0.17 µM; in assay [4], 0.0539 µM.
For `CCc1nc(-c2cc(C(=O)N(C)Cc3cnn(CC)c3C)c3cc(COC)ccc3n2)ccc1NCCNC` [Compound 595] the same measures were 0.0991 µM, 0.0599 µM, 0.145 µM and 0.0516 µM.
For the compound `Cc1nc(-c2cc(C(=O)N(C)Cc3cnn(CC(F)(F)F)c3C)c3cc(Cl)ccc3n2)ccc1NCCN(C)C` [Compound 597], the IC50 in assay [1] came to 0.0787 µM; in assay [2] it was 0.0285 µM; in assay [3], 0.0726 µM; in assay [4], 0.0362 µM.

Values taken from patent US20220144812A1, “QUINOLINE DERIVATIVES AND THEIR USE FOR THE TREATMENT OF CANCER” (Epizyme, Inc., priority 2019, published 2022).
